A word on the viability: it is the share of living cells, or the viability signal relative to a control.

The source of these data is patent US6509377B1, “Use of a 2-hydroxy-4-trifluoromethylbenzoic acid derivatives as inhibitors of the activation of the nuclear transcription factor NF-κB” (J. Uriach & Cia, S.A., priority 1999, dated 2003).

Each structure is given as a SMILES string.

What all share (type): cell-based
For one series, the system named is COX-2. The series is described as follows: COX-2 expression induced by LPS in human PBMC (immunoblot). The note with it: LPS 10 μg/ml, 19 hours, 0.1-5 mM. How it is done: Mononuclear cells (PBMC) were obtained from blood of healthy donors from the Hospital de Sant Pau, (Barcelona) who had not taken any antiinflammatory drug during a period of not less than 2 weeks before blood extraction. Starting from a volume of about 80 ml of heparinized human blood (10 U/ml), this was diluted (1:1) with PBS (pH 7.4; Dulbecco) without calcium, magnesium nor sodium bicarbonate. 15 ml of Ficoll solution (d=1.077 at 20° C.; Biochrom KG) were placed in 50-ml Falcon tubes. To this solution a volume of about 25 ml per tube of the blood previously diluted with PBS was carefully added and the tubes were then centrifuged at 1,200 g for 20 minutes. Mononudear cells concentrate on a whitish interphase between the plasma and the Ficoll solution. This interphase was collected with a Pasteur pipette and was diluted 1:1 with PBS. It was then centrifuged at 300 g, 10 min. The resulting pellet was resuspended in 50 ml PBS and was again centrifuged at 200 g for 10 min in order to remove platelet contamination. Finally, the resulting pellet was resuspended in 20 ml RPMI-1640 culture medium (GibcoBRL) supplemented with 10% fetal calf serum.
Cells were diluted at a concentration of 2.5 million/ml with RPMI medium containing 10% fetal calf serum and were incubated (37° C., 5% CO2) 19 hours in 6-well plates (2 ml/well, 5 million PBMC). […]

Series [1] relates to cocultures of rat neurons and astrocytes. Kind of series: Neuronal cell death in cocultures of neurons and astrocytes induced by oxygen-glucose deprivation (OGD). The conditions noted are these: 4 h OGD, 24-hour recovery; triflusal 10 and 30 μg/ml; HTB 20 and 100 μg/ml. Here is the method:
To carry out this study, an in vitro model of neuronal ischemia based on cocultures of neurons and glial cells was used. Primary cultures of type 1 astrocytes were prepared from 1-day old Wistar rats. Astrocytes were plated onto 60 mm, poly-D-lysine-coated plates. These cells were allowed to grow until they were confluent (about 11 days) and then rat primary neurons were plated onto them and were allowed to grow for 10 days. In addition, separate cultures of each one of the two types of cells were prepared.
Half of the cultures were exposed for four hours to oxygenlucose deprivation (OGD), followed by a 24-hour recovery period. Both the cells exposed to OGD and control cells, were treated at the start of OGD with 0, 10 and 30 μg/ml triflusal in a series of experiments and with 0, 20 and 100 μg/ml HTB in another series. After the 24-hour recovery period, the release of lactate dehydrogenase (LDH) into the medium was determined as a measure of cellular death, as well as the degree of apoptosis in the cultures (using the TUNEL assay) and total neuron and astrocyte counts present in the coculture (using Hoescht staining).

Series [2] is described as follows: Cell viability of Jurkat cells (EZ4U). The conditions noted are these: human, Jurkat cells (acute T cell leukemia), read-out: Percentage of cell viability. Here is the method: Several cell lines obtained from the American Type Culture Collection (ATCC) were cultured at 37° C. and under a 5% CO2 atmosphere. Each cell line was grown in an appropriate culture medium and within the exponential phase (Table I).
For the cell viability studies 24-well plates were used, where 0.5×10^6 cells/ml (for 24-hour studies), 0.25×10^6 cells/ml (for 48-hour studies) or 0.125×10^6 cells/ml (for 72-hour studies) were incubated. Next, different concentrations of HTB (1-3 mM) were added and cells were incubated for different time periods (37° C., 5% CO2). After incubation, the supernatant from each well was extracted, and cells were washed with culture medium without fetal calf serum. Then, the supernatant was extracted and 200 μl culture medium without fetal calf serum were added to each well. In addition, 20 μl substrate were added to determine cell viability. This method is based on the ability of viable cells to transform the colourless substrate into a coloured substance that is excreted to the supernatant (EZ4U, Biomedica Gmbh.). After incubating cells for 1 hour at 37° C. and 5% CO2, 200 μl supernatant were collected and the absorbance was measured at 450 nm.
The absorbance was also determined at 620 nm as a measure of the existing non-specific value.

Regarding `O=C(O)c1ccc(C(F)(F)F)cc1O` [HTB, 2-hydroxy-4-trifluoromethylbenzoic acid], the “inhibition of COX-2 expression” value in the series with COX-2 was “concentration-dependently inhibit”. Also, in series [1], the “increase in LDH release induced by OGD” value is listed as “completely inhibited” and the “increase in number of apoptotic neurons induced by OGD (TUNEL)” value is “completely inhibited”. Further, the viability at 0 h, 1 mM in series [2] (1 mM HTB, 0 hours) amounted to 100%. Moreover, in series [2] (1 mM HTB, 2 hours), the viability at 2 h, 1 mM is 100%. In addition, the viability at 5 h, 1 mM in series [2] (1 mM HTB, 5 hours) was found to be 76.8%. In addition, the viability at 24 h, 1 mM in series [2] (1 mM HTB, 24 hours) stood at 11.3%. The viability at 48 h, 1 mM in series [2] (1 mM HTB, 48 hours) stood at 3.6%. Further, the viability at 72 h, 1 mM in series [2] (1 mM HTB, 72 hours) turned out to be 1.6%. Further, the viability at 0 h, 3 mM in series [2] (3 mM HTB, 0 hours) was found to be 100%. Besides, the viability at 2 h, 3 mM in series [2] (3 mM HTB, 2 hours) is 100%. Also, the viability at 5 h, 3 mM in series [2] (3 mM HTB, 5 hours) was determined as 62.6%. Also, in series [2] (3 mM HTB, 24 hours), the viability at 24 h, 3 mM amounted to 6.2%. Besides, in series [2] (3 mM HTB, 48 hours), the viability at 48 h, 3 mM turned out to be 5.4%.

As for `CC(=O)Oc1cc(C(F)(F)F)ccc1C(=O)O` [triflusal, 2-Acetyloxy-4-trifluoromethylbenzoic acid, reference compound], the “inhibition of COX-2 expression” value in the series with COX-2 is recorded as “concentration-dependently inhibit”. In addition, in series [1], the “increase in LDH release induced by OGD” value is “completely inhibited” and the “increase in number of apoptotic neurons induced by OGD (TUNEL)” value is recorded as “completely inhibited”.
